Test results: PubChem BioAssay AID1963985 (Molecular Pharmacology Branch, DTP, NCI, 2024)

Test system: 252836-082-R-J2-PDC tumor spheroids, viability
Assay: Anticancer human tumor 252836-082-R-J2-PDC patient-derived head and neck squamous cell carcinoma cell line growth inhibition [PI3K]
Conditions: spheroids with HUVEC and MSC; for IC50: curve of first compound; for viability, T/C: stronger effect = lower value
Method in brief: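 High-throughput combination screen: PI3K inhibitors crossed with targeted small molecules on complex spheroids of tumor cells, HUVEC and MSCs at 37 degrees C, 5% CO2. Top concentration was at or near clinical Cmax (otherwise 10 microM), with half-log decrements.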

[1] = second compound 0.00316 µM, first compound 0.0316 µM
[2] = second compound 0.00316 µM, first compound 0.1 µM
[3] = second compound 0.01 µM, first compound 0.0316 µM
[4] = second compound 0.01 µM, first compound 0.1 µM
[5] = second compound 0.0316 µM, first compound 0.0316 µM
[6] = second compound 0.0316 µM, first compound 0.1 µM
[7] = second compound 0.1 µM, first compound 0.0316 µM
[8] = second compound 0.1 µM, first compound 0.1 µM
[9] = second compound 0.316 µM, first compound 0.0316 µM
[10] = second compound 0.316 µM, first compound 0.1 µM
[11] = second compound 1 µM, first compound 0.0316 µM
[12] = second compound 1 µM, first compound 0.1 µM
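Further: spheroids exposed to agents for seven days before readout.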
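Wherever viability, T/C is given: percent of vehicle DMSO control viability so 100% = untreated growth.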

CC(C)n1nc(-c2ccc3oc(N)nc3c2)c2c(N)ncnc21 + CC(Nc1ccc2c(c1)OCCn1cc(N3C(=O)OCC3C(F)F)nc1-2)C(N)=O
IC50 (second compound 0.00316 µM): 36.9 nM
IC50 (second compound 0.01 µM): 26.9 nM
IC50 (second compound 0.0316 µM): 22.4 nM
IC50 (second compound 0.1 µM): 9.42 nM
IC50 (second compound 0.316 µM): 4.07 nM
IC50 (second compound 1 µM): < 0.316 nM
viability, T/C (second compound 0.00316 µM, first compound 0.000316 µM): 108%
viability, T/C (second compound 0.00316 µM, first compound 0.001 µM): 81.8%
viability, T/C (second compound 0.00316 µM, first compound 0.00316 µM): 79%
viability, T/C (second compound 0.00316 µM, first compound 0.01 µM): 86%
viability, T/C [1]: 51.1%
viability, T/C [2]: 21.9%
viability, T/C (second compound 0.01 µM, first compound 0.000316 µM): 94%
viability, T/C (second compound 0.01 µM, first compound 0.001 µM): 81.1%
viability, T/C (second compound 0.01 µM, first compound 0.00316 µM): 73.6%
viability, T/C (second compound 0.01 µM, first compound 0.01 µM): 69.4%
viability, T/C [3]: 47.7%
viability, T/C [4]: 21.3%
viability, T/C (second compound 0.0316 µM, first compound 0.000316 µM): 86.2%
viability, T/C (second compound 0.0316 µM, first compound 0.001 µM): 77.4%
viability, T/C (second compound 0.0316 µM, first compound 0.00316 µM): 80.7%
viability, T/C (second compound 0.0316 µM, first compound 0.01 µM): 61.7%
viability, T/C [5]: 44.8%
viability, T/C [6]: 19.4%
viability, T/C (second compound 0.1 µM, first compound 0.000316 µM): 78.2%
viability, T/C (second compound 0.1 µM, first compound 0.001 µM): 65.1%
viability, T/C (second compound 0.1 µM, first compound 0.00316 µM): 59.5%
viability, T/C (second compound 0.1 µM, first compound 0.01 µM): 52.5%
viability, T/C [7]: 35.2%
viability, T/C [8]: 15.9%
viability, T/C (second compound 0.316 µM, first compound 0.000316 µM): 55.1%
viability, T/C (second compound 0.316 µM, first compound 0.001 µM): 52.3%
viability, T/C (second compound 0.316 µM, first compound 0.00316 µM): 56.6%
viability, T/C (second compound 0.316 µM, first compound 0.01 µM): 40%
viability, T/C [9]: 28.9%
viability, T/C [10]: 16.6%
viability, T/C (second compound 1 µM, first compound 0.000316 µM): 46.4%
viability, T/C (second compound 1 µM, first compound 0.001 µM): 52.5%
viability, T/C (second compound 1 µM, first compound 0.00316 µM): 42.4%
viability, T/C (second compound 1 µM, first compound 0.01 µM): 37.8%
viability, T/C [11]: 26.6%
viability, T/C [12]: 11.9%

Cn1ncc(Cl)c1-c1cc(C(=O)NC(CN)Cc2cccc(F)c2)sc1Cl (centres undefined) + CC(Nc1ccc2c(c1)OCCn1cc(N3C(=O)OCC3C(F)F)nc1-2)C(N)=O
IC50 (second compound 0.00316 µM): 383 nM
IC50 (second compound 0.01 µM): 294 nM
IC50 (second compound 0.0316 µM): 328 nM
IC50 (second compound 0.1 µM): 160 nM
IC50 (second compound 0.316 µM): < 31.6 nM
IC50 (second compound 1 µM): < 31.6 nM
viability, T/C [1]: 82.5%
viability, T/C [2]: 67.8%
viability, T/C (second compound 0.00316 µM, first compound 0.316 µM): 47.6%
viability, T/C (second compound 0.00316 µM, first compound 1 µM): 39.8%
viability, T/C (second compound 0.00316 µM, first compound 3.16 µM): 29.7%
viability, T/C (second compound 0.00316 µM, first compound 10 µM): 9.51%
viability, T/C [3]: 80.8%
viability, T/C [4]: 62.8%
viability, T/C (second compound 0.01 µM, first compound 0.316 µM): 50%
viability, T/C (second compound 0.01 µM, first compound 1 µM): 33.6%
viability, T/C (second compound 0.01 µM, first compound 3.16 µM): 26.7%
viability, T/C (second compound 0.01 µM, first compound 10 µM): 12.8%
viability, T/C [5]: 74.2%
viability, T/C [6]: 61.8%
viability, T/C (second compound 0.0316 µM, first compound 0.316 µM): 48.8%
viability, T/C (second compound 0.0316 µM, first compound 1 µM): 39.3%
viability, T/C (second compound 0.0316 µM, first compound 3.16 µM): 26.6%
viability, T/C (second compound 0.0316 µM, first compound 10 µM): 11.5%
viability, T/C [7]: 66.9%
viability, T/C [8]: 53.3%
viability, T/C (second compound 0.1 µM, first compound 0.316 µM): 45.8%
viability, T/C (second compound 0.1 µM, first compound 1 µM): 26.9%
viability, T/C (second compound 0.1 µM, first compound 3.16 µM): 24.7%
viability, T/C (second compound 0.1 µM, first compound 10 µM): 8%
viability, T/C [9]: 45.5%
viability, T/C [10]: 43.3%
viability, T/C (second compound 0.316 µM, first compound 0.316 µM): 34.3%
viability, T/C (second compound 0.316 µM, first compound 1 µM): 25.6%
viability, T/C (second compound 0.316 µM, first compound 3.16 µM): 22.4%
viability, T/C (second compound 0.316 µM, first compound 10 µM): 14.1%
viability, T/C [11]: 40.9%
viability, T/C [12]: 36.8%
viability, T/C (second compound 1 µM, first compound 0.316 µM): 30.3%
viability, T/C (second compound 1 µM, first compound 1 µM): 24.8%
viability, T/C (second compound 1 µM, first compound 3.16 µM): 23.7%
viability, T/C (second compound 1 µM, first compound 10 µM): 10.5%
